# Laboratory results from patent US12611409B2, “Combination therapy using a chemokine receptor 2 (CCR2) antagonist and a PD-1/PD-L1 inhibitor” (CHEMOCENTRYX, INC., priority 2017, dated 2026).
# Columns and labels:
# [1] = Compound 1 plasma levels in the CT26 study; format: in vivo, Balb/c mice; conditions: oral gavage 30 mg/kg daily; day 3 and day 23 of dosing
# Experimental: Six days after subcutaneous CT26 implantation into the flanks of 9 wk female Balb/c mice (2.5×10^5/mouse), the recipients were randomized based on tumor size and treatment was begun. Mice received anti-PD-1 (RPM1-14 from BioXcell, Inc., catalog number BE0146) by IP injection on days 7, 10, 17 and 21 (200 μg/mouse), and received CCR2 antagonist Compound 1 (30 or 60 mg/kg) or vehicle by oral gavage every 24 hours starting day 7.
# [2] = system: M-MDSCs and CD8 T cells in the CT26 tumor microenvironment; assay: Quantitation of tumor-infiltrating cells per gram of CT26 tumor (flow cytometry); format: in vivo, Balb/c mice
# Excerpt: CT26 is a Balb/c-derived colon adenocarcinoma that generates tumors when injected subcutaneously into Balb/c mice. Single cells were isolated from established subcutaneous CT26 tumors (28 days after injection) by mincing, digesting the tissue briefly with collagenase-D, and passing the slurry through 100 μm sieves. Cells were stained for flow cytometry and gated on live CD45^+ tumor-infiltrating leukocytes (FIG. 2).
# Tumor-infiltrating cytotoxic T cells (Thy1^+/CD8^+) were quantitated by weighing the tumors before dissociation, allowing cells-per-gram of tumor to be calculated.
# M-MDSCs were quantitated by weighing the tumors before dissociation, allowing cells-per-gram of tumor to be calculated.
# The ratio in control treated mice (veh+iso) was 1:1, meaning one M-MDSC for every CD8 T cell. […] Treatment of Compound 1 alone yielded 10 CD8 T cells for every M-MDSC cell. Treatment with α-PD-1 […].
compound,measurement,setting,value
C[C@H]1CN([C@@H]2CC[C@@](C(=O)N3COc4c(cc(C(F)(F)F)cc4C(F)(F)F)C3)(C3CC3)OC2)CC[C@@H]1c1cccc(C(=O)O)c1 [Compound 1],trough plasma levels,[1],at or above those required for full receptor coverage
same,M-MDSCs in the CT26 tumor microenvironment (cells per gram of tumor),[2]; by day 24,reduces the population of M-MDSCs
same,ratio of CD8 T cells to M-MDSCs,"[2]; calculated from cell counts of FIG. 10 and FIG. 11, control (veh+iso) 1:1",10 CD8 T cells for every M-MDSC
